Results published in patent US9949991B2, “Methods of treating aquaporin-mediated conditions” (Aeromics, Inc., priority 2013, dated 2018).
Converted amounts (≈) assume the structure as drawn. Like-named read-outs stand apart in the source and are kept apart here.

Tests used:
[1] = Bioconversion in mouse plasma in vitro; format: in vitro ADME
[2] = test system: mouse water toxicity model (cerebral edema); test: Mouse water toxicity model, brain volume by MRI
Description: The first time point at 5.67 min coincides with the scan slice at the middle of the brain during the first post-injection scan. Other time points are placed in a similar manner. The data is fitted to a single exponential equation: V/V0=Vi+dVmax(1−e^(−kt)); • where V/V0=relative brain volume, Vi=initial relative brain volume, dVmax=maximum change in relative brain volume, k=first order rate constant (min^−1), and t=time in minutes.
Mouse Water Toxicity Model—Brain Volume by Magnetic Resonance Imaging (MRI): MRI is used to measure changes in brain volume in response to water shock, using the water toxicity model. As described for the survival and brain water content studies above, mice are injected, IP, with a water bolus alone or water bolus and test compound at 0.76 mg/kg, and changes in brain volume as detected by MRI are monitored. […] High resolution T2-weighted sagittal scans (resolution=0.1 mm×0.1 mm×0.7 mm) of the mouse head are obtained prior to water injection, 5.67 min post water injection, and then every 5.2 minutes until the animal expires from the water loading. […] The cross sectional area of the brain in each imaging slice is measured by manual region-of-interest selection using ImageJ. Brain volumes are then calculated for each scan by summing the individual cross sectional brain areas and multiplying by the slice thickness (0.7 mm).

AQP5 = molecular target: T1, AQP5 (Homo sapiens, UniProt P55064); test: Aquaporin-Mediated Cell Volume Change Assay, CHO cells expressing AQP5 (specificity); format: cell-based; details: 10 μM, stable CHO cell line, FIG. 2
T1 construct: expressed in transfected cells
Description: (§1) Structure activity relationships (SARs) are determined by assaying analogues of selected hits to guide chemistry for the preparation of new molecules to be tested for improved potency. For this iterative process we use a quantitative kinetic assay—the Aquaporin-Mediated Cell Volume Change Assa—in a 96-well multiplate reader. It detects changes in light scattering by a monolayer of CHO cells expressing the desired AQP as they shrink when exposed to hypertonic solution (300 mOsm→530 mOsm). FIG. 1 depicts the aquaporin-mediated cell volume change assay with AQP4 expressing cells (FIG. 1A) and AQP2 expressing cells (FIG. 1B). The cells expressing aquaporins shrink more rapidly than control cells, due to enhanced water flow, which shrinkage can be inhibited by a compound that inhibits the aquaporin.
(§2) The specificity of the compounds is tested against the most closely related of the 13 known aquaporins: AQP1, AQP2, AQP5 and both splice variants of AQP4 (A and B). A stable CHO cell line is created for each of the above aquaporins and the inhibition of water permeability using the Aquaporin-Mediated Cell Volume Change Assay with 10 μM Compound 3 is tested.

AQP2 = molecular target: T2, AQP2 (Homo sapiens, UniProt P41181); test: Aquaporin-Mediated Cell Volume Change Assay, CHO cells expressing AQP2; format: cell-based; details: 10 μM, stable CHO cell line, FIG. 2
T2 construct: expressed in transfected cells
T2 sequence (P41181 1-271): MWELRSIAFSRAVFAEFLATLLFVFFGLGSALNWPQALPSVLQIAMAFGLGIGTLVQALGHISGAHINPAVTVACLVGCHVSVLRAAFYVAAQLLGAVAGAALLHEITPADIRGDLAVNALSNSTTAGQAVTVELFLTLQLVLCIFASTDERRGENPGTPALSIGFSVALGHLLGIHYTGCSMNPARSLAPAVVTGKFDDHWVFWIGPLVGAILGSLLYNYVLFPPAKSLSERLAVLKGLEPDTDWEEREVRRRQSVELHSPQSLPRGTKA
Description: as §1
(§3) In FIG. 1, aquaporin-expressing cells are shown in the presence of DMSO (triangles) or in the presence of the test compound (here, Compound 3) at 10 μM (squares), along with CHO-CD81 expressing control cells in the presence of DMSO (diamonds). Each curve represents an average of 16 wells in the 96-well plate.
(§4) In FIG. 1A, when the AQP4b cells treated with DMSO are exposed to hypertonic shock, the cells show rapid shrinking, giving a rise in light scattering (increasing relative change in absorbance, Abs/Abs0) followed by a decay as cells detach from the plate. […]

AQP1 = molecular target: T3, AQP1 (Homo sapiens, UniProt P29972); test: Aquaporin-Mediated Cell Volume Change Assay, CHO cells expressing AQP1 (specificity); format: cell-based; details: 10 μM, stable CHO cell line, FIG. 2
T3 construct: expressed in transfected cells
T3 sequence (P29972 1-269): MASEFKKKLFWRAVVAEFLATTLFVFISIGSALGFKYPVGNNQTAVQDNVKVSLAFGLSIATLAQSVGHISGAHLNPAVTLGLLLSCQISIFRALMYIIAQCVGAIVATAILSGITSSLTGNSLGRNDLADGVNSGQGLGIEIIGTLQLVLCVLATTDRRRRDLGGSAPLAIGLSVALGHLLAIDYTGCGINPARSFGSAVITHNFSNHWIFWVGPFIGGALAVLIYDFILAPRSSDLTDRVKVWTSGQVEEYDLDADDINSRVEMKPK
Description: as §1, §2

AQP4 = test: Aquaporin-Mediated Cell Volume Change Assay, CHO cells expressing AQP4 (AQP4b); format: cell-based; details: 10 μM, stable CHO cell line, FIG. 2
Description: as §1, §3, §4

purified AQP4b = purified AQP4b (Homo sapiens, UniProt P55087); test: Hummel-Dryer style binding assay with [3H]-Compound 4 and purified AQP4b; details: for Kd: detergent buffer, 1 μM [3H]-Compound 4, read-out: relative affinity
Description: To support the mechanism of action by which phenylbenzamides directly block AQP4, we perform in vitro binding studies using purified AQP4b and Compound 4 radiolabeled with ^3H. Using a Hummel-Dryer style assay, a gel filtration column is equilibratrated with buffer containing detergent, to maintain solubility of AQP4b, and 1 μM [^3H]-Compound 4. AQP4b is diluted to 250 μM in this column buffer and incubated at RT for 30 min. The sample is then applied to the column, fractions collected and the presence of [^3H]-Compound 4 detected by liquid scintillation counting. […] The rise in [^3H]-Compound 4 from a baseline value of 1 μM represents binding to each of these proteins.

[3] = test system: mouse middle cerebral artery occlusion (MCAo) model; test: Mouse MCAo stroke model, survival; format: in vivo; details: 2 mg/kg i.p. loading dose plus 1 mg/ml at 8 μl/h pump, versus saline, P<0.05
Description: To mimic this injury in mice, an intraluminal monofilament model of middle cerebral artery occlusion (MCAo) is used. Occlusion is achieved by inserting a surgical filament into the external carotid artery (ECA) and threading it forward into the internal carotid artery (ICA) until the tip blocks the origin of the MCA. […] This technique is used to study a temporary occlusion in which the MCA is blocked for one hour.
Survival—Mice are treated with Compound 5 using a 2 mg/kg i.p. loading dose and 1 mg/ml at 8 μl/h maintenance dose (delivered by an i.p. osmotic pump) of Compound 5, or given saline (controls; n=17) using an identical approach.

[4] = test system: mouse middle cerebral artery occlusion (MCAo) model; test: Mouse MCAo stroke model, cerebral edema by MRI and neurological outcome
Description: To mimic this injury in mice, an intraluminal monofilament model of middle cerebral artery occlusion (MCAo) is used. Occlusion is achieved by inserting a surgical filament into the external carotid artery (ECA) and threading it forward into the internal carotid artery (ICA) until the tip blocks the origin of the MCA. […] This technique is used to study a temporary occlusion in which the MCA is blocked for one hour. The filament is then removed allowing reperfusion to occur for 24 hours before the animal's brain was imaged using T2-weighted scans in a 9.4 T Bruker MRI scanner at the Case Center for Imaging Research (FIG. 10).
Cerebral Edema—Mice are given saline or treated with Compound 5 by multi-dosing at 5 mg/kg i.p. every three hours (n=8 per treatment). […] Ipsilateral and contralateral hemispheric volume is measured from the T2-weighted MR images of mice 24 hours post-icus. Relative change in hemispheric volume is calculated as a percent of the difference between ipsilateral brain volume (Vi) and contralateral brain volume (Vc) relative to the contralateral brain volume (Percent Change in Hemispheric Brain Volume=((Vi−Vc)/Vc)×100%.
Neurological Outcome—In the same experiment as above, animals are scored for neurological outcome on a simple 5 point scale described in Manley, G. T. et al., Aquaporin-4 Deletion in Mice Reduces Brain Edema After Acute Water Intoxication and Ischemic Stroke, Nature Medicine, 6, 159-163 (2000).

AQP = AQP inhibition cell-based assay (Table 1)
Description: as §1

Sequence of purified AQP4b (P55087 23-323): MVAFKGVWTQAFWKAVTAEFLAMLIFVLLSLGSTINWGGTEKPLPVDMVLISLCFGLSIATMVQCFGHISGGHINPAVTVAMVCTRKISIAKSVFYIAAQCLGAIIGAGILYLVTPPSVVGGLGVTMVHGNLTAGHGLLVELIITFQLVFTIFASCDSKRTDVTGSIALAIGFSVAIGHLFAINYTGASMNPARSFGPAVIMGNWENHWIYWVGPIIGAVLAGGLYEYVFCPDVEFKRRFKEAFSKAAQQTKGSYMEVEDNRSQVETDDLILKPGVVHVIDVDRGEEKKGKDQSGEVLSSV
T1 sequence (P55064 whole entry): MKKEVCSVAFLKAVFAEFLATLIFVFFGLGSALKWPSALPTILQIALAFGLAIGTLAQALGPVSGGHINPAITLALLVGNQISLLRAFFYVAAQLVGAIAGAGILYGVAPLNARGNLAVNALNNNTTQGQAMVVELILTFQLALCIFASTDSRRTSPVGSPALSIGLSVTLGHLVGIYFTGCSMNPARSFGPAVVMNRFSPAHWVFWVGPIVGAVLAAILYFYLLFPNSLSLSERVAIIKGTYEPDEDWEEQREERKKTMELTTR

Structure (SMILES): O=C(Nc1cc(C(F)(F)F)cc(C(F)(F)F)c1)c1cc(Cl)ccc1OP(=O)(O)O
- level of the salt in plasma samples of mice injected IP (in words) (IP injection): undetectable
- bioavailability and conversion to Compound 1 (in words) (IP injection, Compound 1 detected in plasma): good bioavailability and near-complete conversion
- bioconversion to Compound 1 (in words) ([1]; added to mouse plasma in vitro): rapid bioconversion
- time sufficient to render the salt undetectable ([1]; mouse plasma in vitro, 20° C.): Less than 5 minutes

Structure (SMILES): O=C(Nc1cc(C(F)(F)F)cc(C(F)(F)F)c1)c1cc(Cl)ccc1O [Compound 1, N-(3,5-Bis-trifluoromethyl-phenyl)-5-chloro-2-hydroxy-benzamide]
- solubility (Solubility in water): 3.8 µg/mL (≈ 9.9 µM)
- expected efficacious plasma concentration (taken from the mouse water toxicity model): 20 ng/mL
- extent of CE during the period of observation (in words) ([2]; 0.76 mg/kg): reduced

Structure (SMILES): O=C(Nc1cc(Cl)cc(Cl)c1)c1cc(Cl)ccc1O [Compound 3]
- inhibition of water permeability (in words) (AQP5): poorly inhibits
- inhibition of water permeability (in words) (AQP2): inhibits
- inhibition of water permeability (in words) (AQP1): poorly inhibits
- inhibition of water permeability (in words) (AQP4): inhibits

Structure (SMILES): O=C(Nc1cc(C(F)(F)F)cc(C(F)(F)F)c1)c1cc(C(F)(F)F)ccc1O [Compound 4, N-[3,5-bis(trifluoromethyl)phenyl]-2-hydroxy-5-(trifluoromethyl)benzamide]
- Kd (purified AQP4b; monomeric AQP4b): < 1 µM
- binding to solubilized AQP4b (in words) (purified AQP4b; solubilized AQP4b): relatively weak binding
- Kd (purified AQP4b; tetrameric AQP4b): ~100 µM

Structure (SMILES): O=C(Nc1cc(C(F)(F)F)cc(C(F)(F)F)c1)c1cc(Cl)ccc1OP(=O)(O)O [Compound 5]
- solubility (Solubility in water): 1000 µg/mL (≈ 2160 µM)
- improvement in overall survival at 24 h [3]: 29.4%
- neurological progression (in words) ([4]; 5 mg/kg i.p. every three hours): did not progress into a state of severe paralysis or death
- relative change in ipsilateral brain volume ([4]; 5 mg/kg i.p. every three hours, 24 hours after MCAo, ±SEM, control 13.4%±1.9%): 4.2±1.7%
- reduction in brain swelling after MCAo ([4]; 5 mg/kg i.p. every three hours, versus control): 3.2 fold
- average neurological score ([4]; 5 point scale, P=0.025, control 2.77±0.66): 0.88±0.31

Structure (SMILES): O=C(Nc1ccccc1)c1ccccc1 [Phenylbenzamide, reference compound]
- AQP Inhibition Cell-Based Assay (AQP): 4.5%
- reduction in the rate of CE (in words) ([2]; 0.39 mg/kg): fails to show reduction
